Results as given in PubChem BioAssay AID2060882 (Molecular Pharmacology Branch, DTP, NCI, 2025).

System: 898857-211-R-J1-PDC complex spheroids, growth % test/control
Experiment: Anticancer human tumor 898857-211-R-J1-PDC patient-derived melanoma cell line growth inhibition [RAS]
Details: for IC50: curve of first compound; for viability, T/C: stronger effect = lower value; active = viability on the fitted dose curve at most 10% of control; inactive = the rest
In short: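 Multi-cell-type spheroids: tumor cells plus HUVEC endothelial cells and mesenchymal stem cells. RAS-pathway inhibitors were combined with targeted agents, each dosed in half-log steps down from clinical Cmax, or from 10 microM when Cmax was unknown.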

[1] = second compound 0.000949 µM, first compound 0.00316 µM
[2] = second compound 0.000949 µM, first compound 0.01 µM
[3] = second compound 0.000949 µM, first compound 0.0316 µM
[4] = second compound 0.000949 µM, first compound 0.1 µM
[5] = second compound 0.003 µM, first compound 0.00316 µM
[6] = second compound 0.003 µM, first compound 0.01 µM
[7] = second compound 0.003 µM, first compound 0.0316 µM
[8] = second compound 0.003 µM, first compound 0.1 µM
[9] = second compound 0.00949 µM, first compound 0.00316 µM
[10] = second compound 0.00949 µM, first compound 0.01 µM
[11] = second compound 0.00949 µM, first compound 0.0316 µM
[12] = second compound 0.00949 µM, first compound 0.1 µM
[13] = second compound 0.03 µM, first compound 0.00316 µM
[14] = second compound 0.03 µM, first compound 0.01 µM
[15] = second compound 0.03 µM, first compound 0.0316 µM
[16] = second compound 0.03 µM, first compound 0.1 µM
[17] = second compound 0.0949 µM, first compound 0.00316 µM
[18] = second compound 0.0949 µM, first compound 0.01 µM
[19] = second compound 0.0949 µM, first compound 0.0316 µM
[20] = second compound 0.0949 µM, first compound 0.1 µM
[21] = second compound 0.3 µM, first compound 0.00316 µM
[22] = second compound 0.3 µM, first compound 0.01 µM
[23] = second compound 0.3 µM, first compound 0.0316 µM
[24] = second compound 0.3 µM, first compound 0.1 µM
[25] = second compound 0.000949 µM, first compound 0.316 µM
[26] = second compound 0.000949 µM, first compound 1 µM
[27] = second compound 0.003 µM, first compound 0.316 µM
[28] = second compound 0.003 µM, first compound 1 µM
[29] = second compound 0.00949 µM, first compound 0.316 µM
[30] = second compound 0.00949 µM, first compound 1 µM
[31] = second compound 0.03 µM, first compound 0.316 µM
[32] = second compound 0.03 µM, first compound 1 µM
[33] = second compound 0.0949 µM, first compound 0.316 µM
[34] = second compound 0.0949 µM, first compound 1 µM
[35] = second compound 0.3 µM, first compound 0.316 µM
[36] = second compound 0.3 µM, first compound 1 µM
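Also: spheroids exposed to compound for seven days before readout.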
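For viability, T/C in this document: 100% = DMSO vehicle control wells.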

CC(C)n1nc(-c2ccc3oc(N)nc3c2)c2c(N)ncnc21 + CCn1c(-c2cc(N3CCN(C)CC3)cnc2C(C)OC)c2c3cc(ccc31)-c1csc(n1)CC(NC(=O)C1CC1C)C(=O)N1CCCC(N1)C(=O)OCC(C)(C)C2
19.3 nM: IC50 (second compound 0.003 µM)
20.5 nM: IC50 (second compound 0.000949 µM)
17.3 nM: IC50 (second compound 0.00949 µM)
18.2 nM: IC50 (second compound 0.0949 µM)
14.9 nM: IC50 (second compound 0.3 µM)
inactive: viability, T/C (second compound 0.000949 µM, first compound 0.000316 µM) 98% | viability, T/C (second compound 0.000949 µM, first compound 0.001 µM) 82.6% | viability, T/C [1] 89.9% | viability, T/C [2] 63.3% | viability, T/C [3] 41.1% | viability, T/C [4] 16.7% | viability, T/C (second compound 0.003 µM, first compound 0.000316 µM) 100% | viability, T/C (second compound 0.003 µM, first compound 0.001 µM) 92.8% | viability, T/C [5] 86.5% | viability, T/C [6] 69.3% | viability, T/C [7] 35.6% | viability, T/C [8] 14.1% | viability, T/C (second compound 0.00949 µM, first compound 0.000316 µM) 92% | viability, T/C (second compound 0.00949 µM, first compound 0.001 µM) 88.3% | viability, T/C [9] 80.2% | viability, T/C [10] 63.5% | viability, T/C [11] 35.4% | viability, T/C [12] 15.7% | viability, T/C (second compound 0.03 µM, first compound 0.000316 µM) 97.4% | viability, T/C (second compound 0.03 µM, first compound 0.001 µM) 91.8% | viability, T/C [13] 69.5% | viability, T/C [14] 57% | viability, T/C [15] 35.2% | viability, T/C [16] 12.4% | viability, T/C (second compound 0.0949 µM, first compound 0.000316 µM) 109% | viability, T/C (second compound 0.0949 µM, first compound 0.001 µM) 108% | viability, T/C [17] 79.5% | viability, T/C [18] 64.6% | viability, T/C [19] 38.5% | viability, T/C [20] 15.1% | viability, T/C (second compound 0.3 µM, first compound 0.000316 µM) 103% | viability, T/C (second compound 0.3 µM, first compound 0.001 µM) 100% | viability, T/C [21] 69.2% | viability, T/C [22] 56.2% | viability, T/C [23] 40.2% | viability, T/C [24] 12.7%
13.7 nM: IC50 (second compound 0.03 µM)

CCN1CCN(Cc2ccc(Nc3ncc(F)c(-c4cc(F)c5nc(C)n(C(C)C)c5c4)n3)nc2)CC1 + CCn1c(-c2cc(N3CCN(C)CC3)cnc2C(C)OC)c2c3cc(ccc31)-c1csc(n1)CC(NC(=O)C1CC1C)C(=O)N1CCCC(N1)C(=O)OCC(C)(C)C2
248 nM: IC50 (second compound 0.03 µM)
267 nM: IC50 (second compound 0.000949 µM)
191 nM: IC50 (second compound 0.003 µM)
288 nM: IC50 (second compound 0.3 µM)
252 nM: IC50 (second compound 0.0949 µM)
261 nM: IC50 (second compound 0.00949 µM)
inactive: viability, T/C [1] 108% | viability, T/C [2] 94.2% | viability, T/C [3] 82.1% | viability, T/C [4] 57.4% | viability, T/C [25] 51.6% | viability, T/C [26] 36.9% | viability, T/C [5] 105% | viability, T/C [6] 96% | viability, T/C [7] 85.8% | viability, T/C [8] 54.9% | viability, T/C [27] 47.7% | viability, T/C [28] 38.1% | viability, T/C [9] 96.8% | viability, T/C [10] 97.4% | viability, T/C [11] 82.3% | viability, T/C [12] 79.8% | viability, T/C [29] 42.7% | viability, T/C [30] 36.4% | viability, T/C [13] 96.9% | viability, T/C [14] 102% | viability, T/C [15] 75.4% | viability, T/C [16] 67.4% | viability, T/C [31] 46.3% | viability, T/C [32] 29.4% | viability, T/C [17] 107% | viability, T/C [18] 113% | viability, T/C [19] 87.2% | viability, T/C [20] 64.3% | viability, T/C [33] 48.9% | viability, T/C [34] 39% | viability, T/C [21] 117% | viability, T/C [22] 110% | viability, T/C [23] 76% | viability, T/C [24] 70.2% | viability, T/C [35] 48.5% | viability, T/C [36] 33.9%

C[C@@H](NC(=O)c1ncnc(N)c1Cl)c1ncc(C(=O)Nc2cc(C(F)(F)F)c(Cl)cn2)s1 + CCn1c(-c2cc(N3CCN(C)CC3)cnc2C(C)OC)c2c3cc(ccc31)-c1csc(n1)CC(NC(=O)C1CC1C)C(=O)N1CCCC(N1)C(=O)OCC(C)(C)C2
inactive: viability, T/C [3] 131% | viability, T/C [4] 98.4% | viability, T/C [25] 85% | viability, T/C [26] 59.8% | viability, T/C (second compound 0.000949 µM, first compound 3.16 µM) 38.7% | viability, T/C (second compound 0.000949 µM, first compound 10 µM) 20% | viability, T/C [7] 106% | viability, T/C [8] 109% | viability, T/C [27] 71% | viability, T/C [28] 55.2% | viability, T/C (second compound 0.003 µM, first compound 3.16 µM) 40.7% | viability, T/C (second compound 0.003 µM, first compound 10 µM) 22% | viability, T/C [11] 107% | viability, T/C [12] 99.5% | viability, T/C [29] 83.6% | viability, T/C [30] 53.7% | viability, T/C (second compound 0.00949 µM, first compound 3.16 µM) 33.9% | viability, T/C (second compound 0.00949 µM, first compound 10 µM) 21.2% | viability, T/C [15] 107% | viability, T/C [16] 99.3% | viability, T/C [31] 78.8% | viability, T/C [32] 50.3% | viability, T/C (second compound 0.03 µM, first compound 3.16 µM) 33.4% | viability, T/C (second compound 0.03 µM, first compound 10 µM) 21.7% | viability, T/C [19] 121% | viability, T/C [20] 106% | viability, T/C [33] 72.6% | viability, T/C [34] 52.2% | viability, T/C (second compound 0.0949 µM, first compound 3.16 µM) 38% | viability, T/C (second compound 0.0949 µM, first compound 10 µM) 19.6% | viability, T/C [23] 108% | viability, T/C [24] 87.5% | viability, T/C [35] 65.9% | viability, T/C [36] 56.8% | viability, T/C (second compound 0.3 µM, first compound 3.16 µM) 33.6% | viability, T/C (second compound 0.3 µM, first compound 10 µM) 16.9%
1300 nM: IC50 (second compound 0.00949 µM)
1150 nM: IC50 (second compound 0.3 µM)
1090 nM: IC50 (second compound 0.03 µM)
1340 nM: IC50 (second compound 0.003 µM)
1360 nM: IC50 (second compound 0.0949 µM)
1690 nM: IC50 (second compound 0.000949 µM)
